Data reported in US20260108533A1, “COMPOSITIONS AND METHODS FOR THE TREATMENT OF MEIBOMIAN GLAND DYSFUNCTION” (Azura Ophthalmics Ltd., priority 2019, published 2026).

Tested on: stratum corneum (SC)
Assay: Stratum corneum (SC) tape stripping, keratolytic efficacy
Assay type: in vivo
Conditions: for increase of SC removal: for 3-6 hours
Description: Keratolytic efficacy of an agent is optionally assessed by examining stratum corneum (SC) tape strippings to measure the total SC protein amount removed and on the tape. The amount of skin mass on the tape is directly proportional to the amount of keratolysis. Salicylic acid is a keratolytic, while retinoic acid is known mostly for its comedolytic properties, and benzoyl peroxide is known mostly for its anti-microbial mechanism. Here, all three were examined for relative keratolytic efficacy.

SMILES: O=C(OOC(=O)c1ccccc1)c1ccccc1 [benzoyl peroxide]
- effectiveness in interfering with SC cohesion (After 3 hours): significantly more effective in interfering with SC cohesion than either salicylic acid or retinoic acid
- increase of SC removal: about 10%
- keratolytic effects (tape stripping) (overall comparison): comparable to that of salicylic acid and retinoic acid

SMILES: CC1=C(/C=C/C(C)=C/C=C/C(C)=C/C(=O)O)C(C)(C)CCC1 [retinoic acid]
- increase of SC removal: approximately 35%

SMILES: O=C(O)c1ccccc1O [salicylic acid]
- increase of SC removal: about 10%
